Test results as given in patent US8785439B2, “2,5,7-substituted oxazolopyrimidine derivatives” (Sanofi, priority 2010, dated 2014).

What follows are molecules tested against T1, human Edg-1 receptor (Homo sapiens, UniProt P21453) (assay: GTP-γ-S assay using human Edg-1 receptors (SPA, CHO Flp-In cell membrane preparation)). Conditions: test compound at 10 μM; high control 10 μM S1P regarded as 100% activation; background-corrected; triplicate.
T1 construct: FLAG (N); expressed in transfected cells; membrane preparation
Format: biochemical
Procedure, shortened: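 Membranes from CHO Flp-In cells stably overexpressing N-terminally FLAG-tagged human Edg-1 were used in a scintillation-proximity GTP-γ-S binding assay to measure receptor activation by compounds.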

T1 sequence (P21453 whole entry): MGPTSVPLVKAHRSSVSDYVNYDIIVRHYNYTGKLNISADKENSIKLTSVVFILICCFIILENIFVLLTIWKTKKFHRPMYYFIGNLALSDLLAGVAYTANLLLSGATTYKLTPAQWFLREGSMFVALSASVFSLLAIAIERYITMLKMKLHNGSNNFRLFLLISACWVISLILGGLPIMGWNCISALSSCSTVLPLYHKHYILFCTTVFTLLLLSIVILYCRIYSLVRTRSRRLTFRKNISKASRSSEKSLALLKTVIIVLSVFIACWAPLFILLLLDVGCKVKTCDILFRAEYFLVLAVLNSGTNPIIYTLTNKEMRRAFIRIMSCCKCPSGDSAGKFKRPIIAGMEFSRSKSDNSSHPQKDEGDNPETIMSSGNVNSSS

% Activation (Edg-1 receptor activation in percent of the activation by 10 μM S1P) [%]	SMILES
72	CC1(C)OCC(COc2nc(OCC3CC3)c3nc(-c4cccc(F)c4)oc3n2)O1 (centres unmarked) [Example 35]

Same assay, conditions: test compound at 10 μM; high control 10 μM S1P regarded as 100% activation; background-corrected; triplicate; read-out: % Activation (Edg-1 receptor activation in percent of the activation by 10 μM S1P)

SMILES	activation at 10 µM [%]
CCCOc1nc(Oc2cccnc2)nc2oc(-c3ccc(Cl)c(Cl)c3)nc12 [Example 44, 2-(3,4-dichloro-phenyl)-7-propoxy-5-(pyridin-3-yloxy)-oxazolo[5,4-d]pyrimidine]	94
C=CCCCOc1nc(OCCC)c2nc(-c3cccc(C)c3)oc2n1 [Example 9, 5-Pent-4-enyloxy-7-propoxy-2-(3-methylphenyl)-oxazolo[5,4-d]pyrimidine]	87
CCOc1nc(Oc2ccccc2F)nc2oc(-c3cc(C)c(OC)c(C)c3)nc12 [Example 46, 7-ethoxy-5-(2-fluoro-phenoxy)-2-(4-methoxy-3,5-dimethyl-phenyl)-oxazolo[5,4-d]pyrimidine]	102
CCCOc1nc(Oc2cc(C)nn2C)nc2oc(-c3cccc(F)c3)nc12 [Example 24, 5-(2,5-dimethyl-2H-pyrazol-3-yloxy)-2-(3-fluoro-phenyl)-7-propoxy-oxazolo[5,4-d]pyrimidine]	99
CCCOc1nc(Oc2ccc(C)cc2C)nc2oc(-c3cccc(C)c3)nc12 [Example 53, 5-(2,4-dimethyl-phenoxy)-7-propoxy-2-(3-methyl-phenyl)-oxazolo[5,4-d]pyrimidine]	73
CCCOc1nc(Oc2ccc(Cl)cc2OC)nc2oc(-c3cccc(F)c3)nc12 [Example 60, 5-(4-chloro-2-methoxy-phenoxy)-2-(3-fluoro-phenyl)-7-propoxy-oxazolo[5,4-d]pyrimidine]	80
Cc1cccc(-c2nc3c(OCC4CC4)nc(OC4COC4)nc3o2)c1 [Example 39, 7-cyclopropylmethoxy-5-(oxetan-3-yloxy)-2-(3-methyl-phenyl)-oxazolo[5,4-d]pyrimidine]	47
CCCOc1nc(Oc2ccccc2)nc2oc(-c3cccc(C)c3)nc12 [Example 51, 5-phenoxy-7-propoxy-2-(3-methyl-phenyl)-oxazolo[5,4-d]pyrimidine]	110
CCCOc1nc(SC2CCS(=O)(=O)C2)nc2oc(-c3cccc(F)c3)nc12 (centres unmarked) [Example 14, 5-(1,1-dioxo-tetrahydro-1lambda6-thiophen-3-ylsulfanyl)-2-(3-fluoro-phenyl)-7-propoxy-oxazolo[5,4-d]pyrimidine]	72
CCCOc1nc(Oc2ccccc2F)nc2oc(-c3cc(C)c(O)c(C)c3)nc12 [Example 6, 5-(2-Fluoro-phenoxy)-2-(4-hydroxy-3,5-dimethyl-phenyl)-7-propoxy-oxazolo[5,4-d]pyrimidine]	105
CC1(C)OCC(COc2nc(OCC3CC3)c3nc(-c4cc(F)ccc4Cl)oc3n2)O1 (centres unmarked) [Example 34, 2-(2-chloro-5-fluoro-phenyl)-7-cyclopropylmethoxy-5-(2,2-dimethyl-[1,3]dioxolan-4-ylmethoxy)-oxazolo[5,4-d]pyrimidine]	99

The next lines start with the values.

activation at 10 µM [%]	SMILES
69	Fc1ccccc1Oc1nc(OCC2CC2)c2nc(-c3ccc(Cl)c(Cl)c3)oc2n1 [Example 158, 7-cyclopropylmethoxy-2-(3,4-dichloro-phenyl)-5-(2-fluoro-phenoxy)-oxazolo[5,4-d]pyrimidine]
77	CCCOc1nc(OC2CCC(C)CC2)nc2oc(-c3cccc(C)c3)nc12 (centres unmarked) [Example 70, 5-(4-methyl-cyclohexyloxy)-7-propoxy-2-(3-methyl-phenyl)-oxazolo[5,4-d]pyrimidine]
88	CCCOc1nc(Oc2ccccc2)nc2oc(-c3ccc(Cl)c(Cl)c3)nc12 [Example 105, 2-(3,4-dichloro-phenyl)-5-phenoxy-7-propoxy-oxazolo[5,4-d]pyrimidine]
67	CCCOc1nc(Oc2ccccc2C(C)(C)C)nc2oc(-c3cccc(C)c3)nc12 [Example 96, 5-(2-tert-butyl-phenoxy)-7-propoxy-2-(3-methyl-phenyl)-oxazolo[5,4-d]pyrimidine]
74	CCCOc1nc(Oc2ccccc2)nc2oc(-c3cccc(F)c3)nc12 [Example 61, 2-(3-fluoro-phenyl)-5-phenoxy-7-propoxy-oxazolo[5,4-d]pyrimidine]
60	CCCOc1nc(Oc2cccc(OCC)c2)nc2oc(-c3cccc(C)c3)nc12 [Example 93, 5-(3-ethoxy-phenoxy)-7-propoxy-2-(3-methyl-phenyl)-oxazolo[5,4-d]pyrimidine]
60	CCCOc1nc(Oc2ccc(Cl)c(C)c2)nc2oc(-c3cccc(C)c3)nc12 [Example 140, 5-(4-chloro-3-methyl-phenoxy)-7-propoxy-2-(3-methyl-phenyl)-oxazolo[5,4-d]pyrimidine]
106	CCCOc1nc(Oc2cc(Cl)ccc2C)nc2oc(-c3cc(F)ccc3Cl)nc12 [Example 66, 2-(2-chloro-5-fluoro-phenyl)-5-(5-chloro-2-methyl-phenoxy)-7-propoxy-oxazolo[5,4-d]pyrimidine]
92	CCCOc1nc(Oc2cc(C)ccc2C)nc2oc(-c3cccc(C)c3)nc12 [Example 133, 5-(2,5-dimethyl-phenoxy)-7-propoxy-2-(3-methyl-phenyl)-oxazolo[5,4-d]pyrimidine]
88	CCCOc1nc(Oc2ccc(C)cc2F)nc2oc(-c3cccc(C)c3)nc12 [Example 111, 5-(2-fluoro-4-methyl-phenoxy)-7-propoxy-2-(3-methyl-phenyl)-oxazolo[5,4-d]pyrimidine]
76	CCCOc1nc(Oc2cc(F)cc(C(F)(F)F)c2)nc2oc(-c3cccc(C)c3)nc12 [Example 144, 5-(3-fluoro-5-trifluoromethyl-phenoxy)-7-propoxy-2-(3-methyl-phenyl)-oxazolo[5,4-d]pyrimidine]
107	CCCOc1nc(Oc2cccc(C)c2)nc2oc(-c3cccc(C)c3)nc12 [Example 98, 7-propoxy-2-(3-methyl-phenyl)-5-(3-methyl-phenyl)oxy-oxazolo[5,4-d]pyrimidine]
80	Clc1ccc(-c2nc3c(OCC4CC4)nc(Oc4ccccc4)nc3o2)cc1Cl [Example 110, 7-cyclopropylmethoxy-2-(3,4-dichloro-phenyl)-5-phenoxy-oxazolo[5,4-d]pyrimidine]
105	CCCOc1nc(NN2CCOCC2)nc2oc(-c3cccc(C)c3)nc12 [Example 65, morpholin-4-yl-(7-propoxy-2-(3-methyl-phenyl)-oxazolo[5,4-d]pyrimidin-5-yl)-amine]
103	CCCOc1nc(Oc2ccccc2C(F)(F)F)nc2oc(-c3cccc(C)c3)nc12 [Example 141, 7-propoxy-2-(3-methyl-phenyl)-5-(2-trifluoromethyl-phenoxy)-oxazolo[5,4-d]pyrimidine]
129	CCCOc1nc(Oc2c(C)cccc2C)nc2oc(-c3cccc(C)c3)nc12 [Example 132, 5-(2,6-dimethyl-phenoxy)-7-propoxy-2-(3-methyl-phenyl)-oxazolo[5,4-d]pyrimidine]
120	CCCOc1nc(Oc2ccccc2SC)nc2oc(-c3cccc(C)c3)nc12 [Example 139, 5-(2-methylsulfanyl-phenoxy)-7-propoxy-2-(3-methyl-phenyl)-oxazolo[5,4-d]pyrimidine]
